Target: T1, GECFINDER-Phe3 (Aneurinibacillus migulanus, UniProt P0C061)
T1 construct: gene grsA; GrsA-PheA-PCP; cpEGFP inserted in hinge B, linkers VF-QS
T1 sequence (P0C061 1-617): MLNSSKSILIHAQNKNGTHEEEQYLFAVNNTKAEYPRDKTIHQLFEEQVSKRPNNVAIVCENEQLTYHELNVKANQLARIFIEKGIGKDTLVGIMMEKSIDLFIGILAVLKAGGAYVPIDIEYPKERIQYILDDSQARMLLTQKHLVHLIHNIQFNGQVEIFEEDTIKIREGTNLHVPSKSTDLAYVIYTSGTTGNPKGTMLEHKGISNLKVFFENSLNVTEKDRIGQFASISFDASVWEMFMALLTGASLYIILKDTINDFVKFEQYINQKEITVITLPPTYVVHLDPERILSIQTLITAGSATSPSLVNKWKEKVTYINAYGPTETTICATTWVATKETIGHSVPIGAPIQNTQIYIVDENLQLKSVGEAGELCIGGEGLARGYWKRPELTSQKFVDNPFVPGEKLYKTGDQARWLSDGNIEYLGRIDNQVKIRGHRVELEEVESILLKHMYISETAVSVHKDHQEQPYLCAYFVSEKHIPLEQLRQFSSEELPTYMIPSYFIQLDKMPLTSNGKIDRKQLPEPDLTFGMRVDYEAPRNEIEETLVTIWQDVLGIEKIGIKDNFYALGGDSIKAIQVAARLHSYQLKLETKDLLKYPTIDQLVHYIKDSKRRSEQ
Assay: Fluorescence dose-response of purified […]-Phe3 with phenylalanine in 100 mM Tris at pH 8.5, room temperature, 1 mM ATP, 2.5 mM MgCl2.
Format: biochemical
Conditions: n = 3
Description: As cpEGFP is sensitive to pH, we conducted a dose-response curve and fluorescence intensity analysis of […]-Phe3 at varying pH levels. […] In addition, we expanded the range of ligand-binding domains (LBDs) applicable to […] and attempted optimization of insertion sites for cpEGFP with limited success. Please refer to Supplemental Note 1 for detailed information.
The study conducted dose–response curve, substrate specificity, and fluorescent spectrum analyses in 100-mM Tris buffer (pH = 7.5), while pH stability experiments were performed in 100-mM Tris buffer at three different pH values (6.5, 7.5, and 8.5) at room temperature. […] Fluorescent signals were detected using a Microplate Reader (Synergy H4, Bio Tek) at an excitation/emission wavelength of 460 nm/510 nm or 480 nm/510 nm. The dose-response curve was determined immediately after the addition of the analyte. The total duration of the measurement was 15 min, with readings taken at one-minute intervals. The dose-response curve was plotted using the fluorescence values obtained after achieving stability in the fluorescence signal. […] The thermal stability of […] was analyzed using the UNcle multifunctional protein stability analysis system. […] Absolute fluorescence quantum yields were measured using an absolute photoluminescence quantum yield spectrometer (FS5, Edinburgh). […]

In the case of `N[C@@H](Cc1ccccc1)C(=O)O` [Phe, phenylalanine], the EC50 is reported as 2380 nM.

Source: publication PMC10590383, “Repurposing conformational changes in ANL superfamily enzymes to rapidly generate biosensors for organic and amino acids” (Nature Communications, 2023)
